Results taken from ChEMBL document CHEMBL1124964, “Synthesis, structure, and antiparasitic activity of sulfamoyl derivatives of ribavirin” (1990).
≈ marks a conversion by molar mass, not a printed value. Where “and” joins values, the source holds several entries; their conditions need not be identical. Equal entries are not always repeated.

How the values were obtained:
Assay type in all cases: functional
Mus musculus [1] = assay: In vivo antiparasitic activity against Trypanosoma brucei was tested at 25 mg/kg. Average survival time of the mice was determined
Mus musculus [2] = assay: In vivo antiparasitic activity against Trypanosoma brucei was tested at […]. Percent of mice cured after oral administration
Mus musculus [3] = assay: In vivo antiparasitic activity against Trypanosoma brucei was tested at […]. Range of survival of mice.
Trypanosoma brucei [4] = assay: In vivo antiparasitic activity against Trypanosoma brucei was tested. Average survival time of the mice taken in this experiment.
Trypanosoma brucei [5] = assay: In vivo antiparasitic activity against Trypanosoma brucei was tested at 5 mg/kg. Average survival time of the mice taken in this experiment.
Trypanosoma brucei [6] = assay: In vivo antiparasitic activity against Trypanosoma brucei was tested at 10 mg/kg. Range of survival of mice; 4-11
Trypanosoma brucei [7] = assay: In vivo antiparasitic activity against Trypanosoma brucei was tested at 20 mg/kg. Range of survival of mice; 4-11
Trypanosoma brucei [8] = assay: In vivo antiparasitic activity against Trypanosoma brucei was tested at 10 mg/kg. Average survival time of the mice taken in this experiment.
Trypanosoma brucei [9] = assay: In vivo antiparasitic activity against Trypanosoma brucei was tested. Range of survival of mice.
Trypanosoma brucei [10] = assay: In vivo antiparasitic activity against Trypanosoma brucei was tested. Percent of mice cured after administering the compound.
Leishmania donovani [11] = assay: % Suppression = 100 - 100(LDUs of experimental / LDUs of control).
Trypanosoma brucei [12] = assay: In vivo antiparasitic activity against Trypanosoma brucei was tested at 5 mg/kg. Percent of mice cured after administering the compound.
Giardia intestinalis = assay: In vitro antiparasitic activity against Giardia lamblia was determined; settings: Giardia duodenalis; read-out: ED50 (the source's name)
Trypanosoma brucei [13] = assay: In vivo antiparasitic activity against Trypanosoma brucei was tested at 1 mg/kg Percent of mice cured after oral administration
[14] = tested on: Trypanosoma brucei gambiense; assay: In vitro antiparasitic activity against Trypanosoma gambiense was determined; settings: read-out: ED50 (the source's name)
Leishmania donovani [15] = assay: % Suppression = 100 - 100(LDUs of experimental / LDUs of control) at
Trypanosoma brucei [16] = assay: In vivo antiparasitic activity against Trypanosoma brucei was tested at 20 mg/kg. Percent of mice cured after administering the compound.
Leishmania donovani [17] = assay: In vitro antiparasitic activity against Leishmania donovani was determined; settings: read-out: ED50 (the source's name)
Trypanosoma brucei [18] = assay: In vivo antiparasitic activity against Trypanosoma brucei was tested at 50 mg/kg. Range of survival of mice; 10-4
Trypanosoma brucei [19] = assay: In vivo antiparasitic activity against Trypanosoma brucei was tested at 10 mg/kg. Percent of mice cured after administering the compound.
Trypanosoma brucei [20] = assay: In vivo antiparasitic activity against Trypanosoma brucei was tested at 1 mg/kg. Average survival time of the mice was determined
Mus musculus [21] = species: Mus musculus; assay: LDUs (Leishmania Donovan Units) in liver The liver parasite burden expressed as Leishmania Donovanii units
Trypanosoma brucei [22] = assay: In vivo antiparasitic activity against Trypanosoma brucei was tested at 50 mg/kg (p.o.). Percent of mice cured after administering the compound.; settings: route oral
Trichomonas vaginalis = assay: In vitro antiparasitic activity against […] was determined; settings: read-out: ED50 (the source's name)
Trypanosoma brucei [23] = assay: In vivo antiparasitic activity against Trypanosoma brucei was tested at 50 mg/kg. Average survival time of the mice taken in this experiment.
Trypanosoma brucei [24] = assay: In vivo antiparasitic activity against Trypanosoma brucei was tested at 50 mg/kg. Percent of mice cured after administering the compound.
Trypanosoma brucei [25] = assay: In vivo antiparasitic activity against Trypanosoma brucei was tested at 5 mg/kg. Range of survival of mice; 4-6
Trypanosoma brucei [26] = assay: In vivo antiparasitic activity against Trypanosoma brucei was tested at 50 mg/kg (p.o.). Range of survival of mice; 10-14; settings: route oral
Trypanosoma brucei [27] = assay: In vivo antiparasitic activity against Trypanosoma brucei was tested at 20 mg/kg. Average survival time of the mice taken in this experiment.
Trypanosoma brucei [28] = assay: In vivo antiparasitic activity against Trypanosoma brucei was tested at 50 mg/kg (i.v.). Average survival time of the mice taken in this experiment.; settings: route intravenous
Trypanosoma brucei [29] = assay: In vivo antiparasitic activity against Trypanosoma brucei was tested at 50 mg/kg (i.v.).. Percent of mice cured after administering the compound.; settings: route intravenous
Trypanosoma brucei [30] = assay: In vivo antiparasitic activity against Trypanosoma brucei was tested at 50 mg/kg (i.v.). Range of survival of mice; 4-12; settings: route intravenous
Trypanosoma cruzi = assay: In vitro antiparasitic activity against Trypanosoma cruzi was determined; settings: read-out: ED50 (the source's name)
Trypanosoma brucei [31] = assay: In vivo antiparasitic activity against Trypanosoma brucei was tested at 1 mg/kg. Range of survival of mice; 4-5
Mus musculus [32] = species: Mus musculus; assay: LDUs (Leishmania Donovan Units) in liver The liver parasite burden expressed as Leishmania Donovanii units at
Trypanosoma brucei [33] = assay: In vivo antiparasitic activity against Trypanosoma brucei was tested at 50 mg/kg (p.o.). Average survival time of the mice taken in this experiment.; settings: route oral
Mus musculus [34] = assay: In vivo LDUs (Leishmania Donovan Units) in liver of mouse at a dose of 20 mg/kg/day
Mus musculus [35] = assay: In vivo LDUs (Leishmania Donovan Units) in liver of mouse at a dose of 10 mg/kg/day
Mus musculus [36] = assay: In vivo LDUs (Leishmania Donovan Units) in liver of mouse at a dose of 50 mg/kg/day
Leishmania donovani [37] = assay: % […] = 100 - 100(LDUs of experimental / LDUs of control).

O=C1N=CN=C2C1N=CC2[C@@H]1O[C@H](CO)[C@@H](O)[C@H]1O (stereo partly specified)
Average survival (Mus musculus [1]): 35 days
Cured (Mus musculus [2]): 100%
Range of survival (Mus musculus [3]): 35

NC(=O)c1ncn(C2O[C@H](COS(N)(=O)=O)[C@@H](O)[C@H]2O)n1 (stereo partly specified)
Average survival (Trypanosoma brucei [4]): 3.4 days
Average survival (Trypanosoma brucei [5]): 4.8 days
Range of survival (Trypanosoma brucei [6]): 4
Range of survival (Trypanosoma brucei [7]): 4
Average survival (Trypanosoma brucei [8]): 7.4 days
Range of survival (Trypanosoma brucei [9]): 5
Cured (Trypanosoma brucei [10]): 0%
Suppression (Leishmania donovani [11]): 50% and 67%
Cured (Trypanosoma brucei [12]): 0%
EC50 (Giardia intestinalis): 10 µg/mL (≈ 30.9 µM)
Cured (Trypanosoma brucei [13]): 0%
EC50 [14]: 0.01 µg/mL (≈ 0.0309 µM)
Suppression (Leishmania donovani [15]): 18%
Cured (Trypanosoma brucei [16]): 0%
EC50 (Leishmania donovani [17]): 0.03 µg/mL (≈ 0.0928 µM)
Range of survival (Trypanosoma brucei [18]): 4
Cured (Trypanosoma brucei [19]): 0%
Average survival (Trypanosoma brucei [20]): 4.6 days
Activity (Mus musculus [21]): 765 and 501
Cured (Trypanosoma brucei [22]): 0%
EC50 (Trichomonas vaginalis): > 25 µg/mL
Average survival (Trypanosoma brucei [23]): 6.4 days
Cured (Trypanosoma brucei [24]): 0%
Range of survival (Trypanosoma brucei [25]): 4
Range of survival (Trypanosoma brucei [26]): 10
Average survival (Trypanosoma brucei [27]): 7.4 days
Average survival (Trypanosoma brucei [28]): 6.4 days
Cured (Trypanosoma brucei [29]): 0%
Range of survival (Trypanosoma brucei [30]): 4
EC50 (Trypanosoma cruzi): > 50 µg/mL
Range of survival (Trypanosoma brucei [31]): 4
Activity (Mus musculus [32]): 1244
Average survival (Trypanosoma brucei [33]): 11.6 days

NC(=S)c1ncn(C2O[C@H](COS(N)(=O)=O)[C@@H](O)[C@H]2O)n1 (stereo partly specified)
Activity (Mus musculus [34]): 1143
Activity (Mus musculus [35]): 1039
Suppression (Leishmania donovani [11]): 0%
EC50 (Giardia intestinalis): > 25 µg/mL
EC50 [14]: 0.5 µg/mL (≈ 1.47 µM)
Activity (Mus musculus [36]): 1514
EC50 (Leishmania donovani [17]): 2.5 µg/mL (≈ 7.37 µM)
Suppression (Leishmania donovani [37]): 0%
EC50 (Trichomonas vaginalis): 15 µg/mL (≈ 44.2 µM)
EC50 (Trypanosoma cruzi): > 50 µg/mL

N#Cc1ncn(C2O[C@H](COS(N)(=O)=O)[C@@H](O)[C@H]2O)n1 (stereo partly specified)
EC50 (Giardia intestinalis): > 25 µg/mL
EC50 [14]: 1 µg/mL (≈ 3.28 µM)
EC50 (Leishmania donovani [17]): 1 µg/mL (≈ 3.28 µM)
EC50 (Trichomonas vaginalis): > 25 µg/mL
EC50 (Trypanosoma cruzi): > 50 µg/mL
